Measurements reported in patent US8685974B2 (Bayer CropScience AG, priority 2009, dated 2014).
“And” between values parts separate entries of the source, which are not always exact repeats. Equal entries are not always repeated. Where two headings read alike, the source gives them in different places. Marks after values point to notes of the source that are not given here.

Tests used:
Leptosphaeria nodorum = Leptosphaeria nodorum test (wheat) / protective; assay type: in vivo; settings: 500 ppm active compound, protective spray, evaluated 7-9 days after inoculation
Description: Leptosphaeria nodorum Test (Wheat)/Protective
Solvent: 49 parts by weight of N,N-dimethylformamide
Emulsifier: 1 part by weight of alkylaryl polyglycol ether
To produce a suitable preparation of active compound, 1 part by weight of active compound is mixed with the stated amounts of solvent and emulsifier, and the concentrate is diluted with water to the desired concentration.
To test for protective activity, young wheat plants are sprayed with the preparation of active compound at the stated application rate. […] The plants are then placed in a greenhouse at 90% rel. atmospheric humidity and a temperature of 22° C.
Evaluation is carried out 7-9 days after the inoculation. 0% means an efficacy which corresponds to that of the control, whereas an efficacy of 100% means that no infection is observed.

Fusarium graminearum = assay type: cell-based
Pyrenophora teres = test: In vivo test on Pyrenophora teres (barley net blotch); settings: dose of 500 ppm; barley plants; grading 12 days after contamination
Description: In Vivo Test on Pyrenophora teres (Barley Net Blotch)
The active ingredients tested are prepared by homogenization in a mixture of acetone/Tween/DMSO, then diluted with water to obtain the desired active material concentration.
Barley plants (Plaisant variety), sown on a 50/50 peat soil-pozzolana substrate in starter cups and grown at 12° C., are treated at the 1-leaf stage (10 cm tall) by spraying with the active ingredient prepared as described above.
Plants, used as controls, are treated with an aqueous solution not containing the active material.
After 24 hours, the plants are contaminated by spraying them with an aqueous suspension of Pyrenophora teres spores (12,000 spores per ml). The spores are collected from a 12-day-old culture. The contaminated barley plants are incubated for 24 hours at about 20° C. and at 100% relative humidity, and then for 12 days at 80% relative humidity.
Grading is carried out 12 days after the contamination, in comparison with the control plants.

Alternaria solani = test: Alternaria test (tomato) / protective; assay type: in vivo; settings: 500 ppm active compound, protective spray, evaluated 7 days after inoculation
Procedure, shortened: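 Efficacy scored 7 days after inoculation, where 100% means no infection and 0% matches the untreated control. Test plants were young tomatoes given a protective spray at the stated rate, compound dissolved in DMF plus emulsifier and diluted with water. Incubation at 20° C, 96% relative humidity.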

physchem = settings: pH 2.7

Row | Structure (SMILES) | efficacy (Leptosphaeria nodorum) | % Inhibition of fungal growth at 50 μM (Fusarium graminearum; 50 μM) | % Inhibition of DON/AcDON at 50 μM (Fusarium graminearum; 50 μM, 7 days at 28° C.) | protection (Pyrenophora teres) | log p (pH 2.7) | efficacy (Alternaria solani) | logP value of the minor isomer (pH 2.7) | log p (pH 7.8) | log p (pH 2.3) | % Inhibition of DON/AcDON at 50 μM (Fusarium graminearum) | log p (physchem)
1 | CC(C)C(=O)Nc1cc(-c2cn(C)nc2-c2ccc(Cl)s2)ccn1 [Example 288] | 70% | 92% | 99% | 95% | 2.39^[b] | 90% |  |  |  |  | 
2 | FC(F)Cn1cc(-c2ccncc2)c(-c2ccc(Br)s2)n1 [Example 384] | 90% | 100% | 99% |  | 1.67^[b] | 94% | (1.51) |  |  |  | 
3 | CCC(C)n1cc(-c2ccnc(NC(=O)C(C)C)c2)c(-c2ccc(Cl)s2)n1 (stereo not drawn) [Example 234] | 80% | 45% | 96% | 95% | 3.63^[b] | 90% |  |  |  |  | 
4 | CCC(=O)Nc1cc(-c2cn(C(C)C)nc2-c2cccs2)ccn1 [Example 175] | 70% |  |  | 90% | 2.01^[b] | 80% |  | 2.61^[c]; |  |  | 
5 | CCC(C)n1cc(-c2ccnc(NC(=O)C(C)C)n2)c(-c2ccc(Cl)s2)n1 (stereo not drawn) [Example 173] | 89% |  |  | 95% |  |  |  |  | 3.72^[a] |  | 
6 | CC(=O)Nc1cc(-c2cn(C(C)C)nc2-c2ccc(Cl)s2)ccn1 [Example 256] | 80% | 100% | 99% | 100% | 2.45^[b] | 100% |  |  |  |  | 
7 | CCn1cc(-c2ccnc(NC(=O)C(C)C)c2)c(-c2ccc(Cl)s2)n1 [Example 285] | 80% | 90% | 99% | 95% | 2.77^[b] | 95% |  |  |  |  | 
8 | CC(C)n1cc(-c2ccnc(NC(=O)C3CCC3)c2)c(-c2ccc(Cl)s2)n1 [Example 243] | 90% | 31% | 99% | 95% | 3.37^[b] | 90% |  |  |  |  | 
9 | CCC(=O)Nc1nccc(-c2cn(C(C)C)nc2-c2ccc(Cl)s2)n1 [Example 172] | 89% |  |  | 100% |  |  |  |  | 3.04^[a] |  | 
10 | CC(C)Nc1nccc(-c2cn(C(C)C)nc2-c2ccc(Cl)s2)n1 [Example 181] | 70% |  |  | 80% |  |  |  |  | 2.82^[a] |  | 
11 | CC(C)n1cc(-c2ccnc(NC(=O)C3CC3)c2)c(-c2ccc(Cl)s2)n1 [Example 247] | 80% | 91% | 99% | 100% | 2.94^[b] | 95% |  |  |  |  | 
12 | CC(C)n1cc(-c2ccnc(NC3COC3)n2)c(-c2ccc(Cl)s2)n1 [Example 179] | 80% |  |  | 90% |  | 80% |  |  | 2.7^[a] |  | 
13 | CCn1nc(-c2ccc(Cl)s2)c(-c2ccncc2)c1C [Example 146] | 95% |  |  | 100% | 1.61^[b] | 95% |  | 3.08^[c]; |  |  | 
14 | CC(C)Cn1cc(-c2ccncc2)c(-c2cccs2)n1 [Example 407] | 94% | 99% | 100% | 90% | 1.5^[b] | 90% |  |  |  |  | 
15 | CC(C)n1cc(-c2ccnc(NC(=O)N(C)C)c2)c(-c2ccc(Cl)s2)n1 [Example 248] | 90% |  |  | 100% | 1.97^[b] | 90% |  |  |  |  | 
16 | COc1ccc(Cn2cc(-c3ccncc3)c(-c3ccc(Cl)s3)n2)cc1 [Example 104] | 80% |  |  |  | 2.74^[b] |  |  |  |  |  | 
17 | CC(C)C(=O)Nc1cc(-c2cn(C(C)C)nc2-c2ccc(Cl)s2)ccn1 [Example 257] | 90% | 81% | 99% | 95% | 3.21^[b] | 95% |  |  |  |  | 
18 | CC(C)Cn1cc(-c2ccnc(N)n2)c(-c2ccc(Cl)s2)n1 [Example 95] | 80% |  |  |  |  | 70% |  |  | 2.35^[a] |  | 

Row | Structure (SMILES) | efficacy (Leptosphaeria nodorum) | % Inhibition of fungal growth at 50 μM (Fusarium graminearum; 50 μM) | % Inhibition of DON/AcDON at 50 μM (Fusarium graminearum; 50 μM, 7 days at 28° C.) | protection (Pyrenophora teres) | log p (pH 2.7) | efficacy (Alternaria solani) | logP value of the minor isomer (pH 2.7) | log p (pH 7.8) | log p (pH 2.3) | % Inhibition of DON/AcDON at 50 μM (Fusarium graminearum) | log p (physchem)
19 | CCC(C)n1cc(-c2ccnc(Cl)c2)c(-c2ccc(Cl)s2)n1 (stereo not drawn) [Example 318] | 70% |  |  |  | 4.89^[b] |  |  |  |  |  | 
20 | CCn1cc(-c2ccnc(N)c2)c(-c2ccc(Cl)s2)n1 [Example 307] | 78% | 45% | 80% | 80% and 95% | 1.54^[b] | 80% and 94% |  |  |  |  | 
21 | CC(=O)Nc1cc(-c2cn(CC(C)C)nc2-c2ccc(Cl)s2)cc[n+]1[O-] [Example 80] | 70% |  |  |  |  | 94% |  |  | 2.86^[a] |  | 
22 | CC(=O)N(C(C)=O)c1nccc(-c2cn(C(C)C)nc2-c2ccc(Cl)s2)n1 [Example 171] | 89% |  |  | 95% |  |  |  |  | 3.33^[a] |  | 
23 | CCC(=O)Nc1cc(-c2c(-c3ccc(Cl)s3)nn(CC)c2C)ccn1 [Example 169] | 80% |  |  | 95% | 2.71^[b] | 95% |  | 3.1^[c]; |  |  | 
24 | CC(=O)N(C(C)=O)c1cc(-c2cn(C(C)C)nc2-c2ccc(Cl)s2)ccn1 [Example 304] | 80% | 87% and 90% |  | 95% | 3.33^[b] | 95% |  |  |  | 100% | 
25 | CCn1cc(-c2ccnc(NC(=O)C3CCC3)c2)c(-c2ccc(Cl)s2)n1 [Example 269] | 70% | 58% | 87% | 80% | 2.92^[b] |  |  |  |  |  | 
26 | CCC(=O)Nc1cc(-c2c(-c3ccc(Cl)s3)nn(C)c2C)ccn1 [Example 170] | 90% |  |  | 80% | 2.32^[b] | 90% |  | 2.68^[c]; |  |  | 
27 | CCC(C)C(=O)Nc1cc(-c2cn(C)nc2-c2ccc(Cl)s2)ccn1 (stereo not drawn) [Example 280] | 80% |  |  | 90% | 2.71^[b] | 90% |  |  |  |  | 
28 | CC1(Cn2cc(-c3ccncc3)c(-c3ccc(Br)s3)n2)CC1(Cl)Cl (stereo not drawn) [Example 386] | 80% | 0% | 99% |  | 2.75^[b] | 89% | (2.50) |  |  |  | 
29 | CCC(=O)Nc1cc(-c2c(-c3ccc(Cl)s3)nn(C(C)C)c2C)ccn1 [Example 168] | 90% |  |  | 90% | 3.34^[b] | 90% |  | 3.76^[c]; |  |  | 
30 | CCC(=O)Nc1nccc(-c2cn(C(C)CC)nc2-c2ccc(Cl)s2)n1 (stereo not drawn) [Example 190] | 70% |  |  | 95% |  | 80% |  |  | 3.37^[a] |  | 
31 | Cc1c(-c2ccncc2)c(-c2ccc(Cl)s2)nn1C(C)C [Example 145] | 95% |  |  | 100% | 2.07^[b] | 100% |  | 3.8^[c]; |  |  | 
32 | C#CCNc1nccc(-c2cn(C(C)C)nc2-c2ccc(Cl)s2)n1 [Example 180] | 70% |  |  | 80% |  |  |  |  | 3.25^[a] |  | 
33 | Cn1cc(-c2ccnc(NC(=O)Cc3ccccc3)c2)c(-c2ccc(Cl)s2)n1 [Example 277] | 70% |  |  | 90% | 3.06^[b] | 90% |  |  |  |  | 
34 | CCC(CC)n1cc(-c2ccncc2)c(-c2ccc(Br)s2)n1 [Example 392] | 70% | 97% | 99% |  | 2.39^[b] | 100% | (2.22) |  |  |  | 
35 | FCCn1cc(-c2ccncc2)c(-c2ccc(Br)s2)n1 [Example 388] | 80% | 100% | 99% |  | 1.49^[b] | 100% | (1.34) |  |  |  | 
36 | CCCn1cc(I)c(-c2cc(C)cs2)n1 [4-Iodo-3-(4-methyl-2-thienyl)-1-propyl-1H-pyrazole] |  |  |  |  |  |  |  |  |  |  | 4.2
